Test [1] deals with carotid artery thrombosis. Nature of the test: Cynomolgus monkey electrolytic injury-induced carotid artery thrombosis model. To be noted: oral, electrically-induced arterial thrombus model. The class given is in vivo. The text has this:
The efficacy of the PAR4 antagonists of the present invention in preventing thrombosis can also be measured in a variety of in vivo assays. Exemplary mammals that can provide models of thrombosis and hemostasis to test the effectiveness of the PAR4 antagonists of the present invention as antithrombotic agents include, but are not limited to, guinea pigs and primates. Relevant efficacy models include, but are not limited to, electrolytic injury-induced carotid artery thrombosis, FeCl3-induced carotid artery thrombosis and arteriovenous-shunt thrombosis. […]
On the day of the study, compounds or vehicles were administered orally at 1 to 2 hours before the experiment. […] Blood pressure and heart rate were monitored to maintain normal vital signs.
Carotid blood flow was measured with an appropriately sized TRANSONIC® flow probe and a TRANSONIC® perivascular flowmeter (TS420 Model, Transonic Systems Inc., Ithaca, N.Y.). It was continuously recorded over a 90-min period to monitor thrombosis-induced occlusion. Integrated carotid blood flow was measured by the area under the flow-time curve. It was expressed as percent of total control carotid blood flow, which would result if control blood flow had been maintained continuously for 90 min. […]

Test [2] has as its system carotid artery thrombosis. Nature of the test: cynomolgus monkey electrolytic injury-induced carotid artery thrombosis model. The class given is in vivo.

For `COc1cc(OCc2csc(-c3ccccc3)n2)c2cc(-c3cn4nc(OC)sc4n3)oc2c1` [Example 3, 2-Methoxy-6-(6-methoxy-4-((2-phenylthiazol-4-yl)methoxy)benzofuran-2-yl)imidazo[2,1-b][1,3,4]thiadiazole], the “antithrombotic efficacy (dose response, FIG. 1C)” value in test [1] is “demonstrating the in vivo antithrombotic efficacy”. In test [2], the “antithrombotic efficacy (FIG. 1C)” value was “antithrombotic efficacy”.

For the origin of these results see patent publication US9688695B2, “Imidazothiadiazole and imidazopyrazine derivatives as protease activated receptor 4 (PAR4) inhibitors for treating platelet aggregation” (BRISTOL-MYERS SQUIBB COMPANY, priority 2012, dated 2017).
